Measured values from PubChem BioAssay (NCI).
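A five-concentration, 48-hour dose response in 96-well plates underlies each endpoint, interpolated linearly between surrounding concentrations. At the TGI there is no net growth.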

Columns and labels:
Experiment in all cases: inhibition of tumour cell growth, NCI panel, 48 h
SN12C renal = test system: SN12C renal
BT-549 breast = test system: BT-549 breast
HCT-116 colon = test system: HCT-116 colon
M14 melanoma = test system: M14 melanoma
UACC-62 melanoma = test system: UACC-62 melanoma
SK-MEL-5 melanoma = test system: SK-MEL-5 melanoma
EKVX NSCLC = test system: EKVX NSCLC
HOP-92 NSCLC = test system: HOP-92 NSCLC
SF-268 CNS = test system: SF-268 CNS
DU-145 prostate = test system: DU-145 prostate
LOX IMVI melanoma = test system: LOX IMVI melanoma
MDA-MB-231 breast = test system: MDA-MB-231 breast
SK-MEL-28 melanoma = test system: SK-MEL-28 melanoma

COc1ccc(/C=N/n2c(=O)[nH]c3ccccc3c2=O)cc1
TGI (SN12C renal): > 100 µM
TGI (BT-549 breast): > 100 µM
TGI (HCT-116 colon): > 100 µM
TGI (M14 melanoma): > 100 µM
TGI (UACC-62 melanoma): > 100 µM
TGI (SK-MEL-5 melanoma): > 100 µM
TGI (EKVX NSCLC): > 100 µM
TGI (HOP-92 NSCLC): > 100 µM
TGI (SF-268 CNS): > 100 µM
TGI (DU-145 prostate): > 100 µM
TGI (LOX IMVI melanoma): > 100 µM
TGI (MDA-MB-231 breast): > 100 µM
TGI (SK-MEL-28 melanoma): > 100 µM

N=c1oc2c(Br)cc(Br)cc2cc1C(=O)Nc1ccccn1
TGI (SN12C renal): > 100 µM
TGI (BT-549 breast): > 100 µM
TGI (HCT-116 colon): > 100 µM
TGI (M14 melanoma): > 100 µM
TGI (UACC-62 melanoma): > 100 µM
TGI (SK-MEL-5 melanoma): > 100 µM
TGI (EKVX NSCLC): > 100 µM
TGI (HOP-92 NSCLC): > 100 µM
TGI (SF-268 CNS): > 100 µM
TGI (DU-145 prostate): > 100 µM
TGI (LOX IMVI melanoma): > 100 µM
TGI (MDA-MB-231 breast): > 100 µM
TGI (SK-MEL-28 melanoma): > 100 µM

Cc1cc(N)ccc1N=Nc1ccc(S(=O)(=O)CCOS(=O)(=O)O)cc1
TGI (SN12C renal): 11.1 µM
TGI (BT-549 breast): 14.6 µM
TGI (HCT-116 colon): 12.6 µM
TGI (M14 melanoma): 18.4 µM
TGI (UACC-62 melanoma): 20.3 µM
TGI (SK-MEL-5 melanoma): 2.23 µM
TGI (EKVX NSCLC): > 53 µM
TGI (HOP-92 NSCLC): 19.5 µM
TGI (SF-268 CNS): 21.7 µM
TGI (DU-145 prostate): > 100 µM
TGI (LOX IMVI melanoma): 2.97 µM
TGI (SK-MEL-28 melanoma): 19 µM

CCOC(=O)N1CC2(C)C=CC1C(C(=O)OC)C2 (stereo not given)
TGI (SN12C renal): > 100 µM
TGI (BT-549 breast): > 100 µM
TGI (HCT-116 colon): > 100 µM
TGI (M14 melanoma): > 100 µM
TGI (UACC-62 melanoma): > 100 µM
TGI (SK-MEL-5 melanoma): > 100 µM
TGI (EKVX NSCLC): > 100 µM
TGI (SF-268 CNS): > 100 µM
TGI (DU-145 prostate): > 100 µM
TGI (LOX IMVI melanoma): > 100 µM
TGI (MDA-MB-231 breast): > 100 µM
TGI (SK-MEL-28 melanoma): > 100 µM

CCSC1=N/C(=C\c2ccco2)C(NN)=N1
TGI (SN12C renal): > 50 µM
TGI (BT-549 breast): > 50 µM
TGI (HCT-116 colon): > 50 µM
TGI (M14 melanoma): > 50 µM
TGI (UACC-62 melanoma): > 50 µM
TGI (SK-MEL-5 melanoma): > 50 µM
TGI (EKVX NSCLC): > 50 µM
TGI (HOP-92 NSCLC): > 50 µM
TGI (SF-268 CNS): > 50 µM
TGI (DU-145 prostate): > 50 µM
TGI (LOX IMVI melanoma): > 50 µM
TGI (MDA-MB-231 breast): > 50 µM
TGI (SK-MEL-28 melanoma): > 50 µM

NC1OC(COC(=O)c2ccccc2)C(O)C(OC(=O)c2ccccc2)C1OC(=O)c1ccccc1 (stereo not given)
TGI (SN12C renal): 50.9 µM
TGI (BT-549 breast): 40.6 µM
TGI (HCT-116 colon): 34.2 µM
TGI (M14 melanoma): 58.1 µM
TGI (UACC-62 melanoma): 29.4 µM
TGI (SK-MEL-5 melanoma): 27.5 µM
TGI (EKVX NSCLC): 60.2 µM
TGI (HOP-92 NSCLC): 59.1 µM
TGI (SF-268 CNS): 67.4 µM
TGI (DU-145 prostate): > 100 µM
TGI (LOX IMVI melanoma): 34.7 µM
TGI (MDA-MB-231 breast): 45.9 µM
TGI (SK-MEL-28 melanoma): 42.7 µM

Cc1ccc2c3c(cnc2n1)C(=O)OCCN3C
TGI (SN12C renal): > 100 µM
TGI (BT-549 breast): > 100 µM
TGI (HCT-116 colon): > 100 µM
TGI (M14 melanoma): > 100 µM
TGI (UACC-62 melanoma): > 100 µM
TGI (SK-MEL-5 melanoma): > 100 µM
TGI (EKVX NSCLC): > 100 µM
TGI (HOP-92 NSCLC): > 100 µM
TGI (SF-268 CNS): > 100 µM
TGI (DU-145 prostate): > 100 µM
TGI (LOX IMVI melanoma): > 100 µM
TGI (MDA-MB-231 breast): > 100 µM
TGI (SK-MEL-28 melanoma): > 100 µM

CC1(C)Oc2ccc3c(=O)c(-c4ccccc4)c(-c4ccccc4)oc3c2C1C(=O)O (stereo not given)
TGI (SN12C renal): > 100 µM
TGI (BT-549 breast): > 100 µM
TGI (HCT-116 colon): > 100 µM
TGI (M14 melanoma): > 100 µM
TGI (UACC-62 melanoma): > 100 µM
TGI (SK-MEL-5 melanoma): > 100 µM
TGI (EKVX NSCLC): > 100 µM
TGI (SF-268 CNS): > 100 µM
TGI (DU-145 prostate): > 100 µM
TGI (MDA-MB-231 breast): > 100 µM

O=C1C=CC(=O)c2c1cc([N+](=O)[O-])c1ccoc21
TGI (SN12C renal): 38.1 µM
TGI (BT-549 breast): 30.8 µM
TGI (HCT-116 colon): 12.5 µM
TGI (M14 melanoma): 11.3 µM
TGI (UACC-62 melanoma): 29.4 µM
TGI (SK-MEL-5 melanoma): 31.3 µM
TGI (EKVX NSCLC): 41.1 µM
TGI (HOP-92 NSCLC): 5 µM
TGI (SF-268 CNS): > 65.1 µM
TGI (DU-145 prostate): > 58.6 µM
TGI (LOX IMVI melanoma): > 44.5 µM
TGI (MDA-MB-231 breast): 52.7 µM
TGI (SK-MEL-28 melanoma): 60 µM

O=c1[nH]c(=O)n(C2OC(CO)C(O)C2O)c2ncc(-c3ccc(-c4ccccc4)cc3)nc12 (stereo not given)
TGI (SN12C renal): > 20 µM
TGI (BT-549 breast): > 20 µM
TGI (HCT-116 colon): > 20 µM
TGI (UACC-62 melanoma): > 20 µM
TGI (SK-MEL-5 melanoma): > 20 µM
TGI (EKVX NSCLC): > 20 µM
TGI (HOP-92 NSCLC): > 20 µM
TGI (SF-268 CNS): > 20 µM
TGI (DU-145 prostate): > 20 µM
TGI (LOX IMVI melanoma): > 20 µM
TGI (MDA-MB-231 breast): > 20 µM

O=C(Nc1cc2c(=O)[nH]c3ccccc3c2oc1=O)c1cnccn1
TGI (SN12C renal): > 100 µM
TGI (BT-549 breast): > 100 µM
TGI (HCT-116 colon): > 100 µM
TGI (M14 melanoma): > 100 µM
TGI (UACC-62 melanoma): > 100 µM
TGI (SK-MEL-5 melanoma): > 100 µM
TGI (EKVX NSCLC): > 100 µM
TGI (HOP-92 NSCLC): > 100 µM
TGI (DU-145 prostate): > 100 µM
TGI (LOX IMVI melanoma): > 100 µM
TGI (MDA-MB-231 breast): > 100 µM
TGI (SK-MEL-28 melanoma): > 100 µM

Cc1c(-c2ccccc2)[nH]c2ccc(Cl)cc2c1=O
TGI (SN12C renal): > 100 µM
TGI (BT-549 breast): > 100 µM
TGI (HCT-116 colon): 52 µM
TGI (M14 melanoma): > 100 µM
TGI (UACC-62 melanoma): > 100 µM
TGI (SK-MEL-5 melanoma): 56.3 µM
TGI (EKVX NSCLC): > 100 µM
TGI (HOP-92 NSCLC): 52 µM
TGI (SF-268 CNS): > 100 µM
TGI (DU-145 prostate): > 100 µM
TGI (LOX IMVI melanoma): > 100 µM
TGI (MDA-MB-231 breast): 96 µM
TGI (SK-MEL-28 melanoma): > 100 µM

COC(=O)C(Cc1ccccc1)NC(=O)C(CCC(=O)OCc1ccccc1)NC(=O)OC(C)(C)C (stereo not given)
TGI (SN12C renal): > 100 µM
TGI (BT-549 breast): > 100 µM
TGI (HCT-116 colon): > 100 µM
TGI (M14 melanoma): > 100 µM
TGI (UACC-62 melanoma): > 100 µM
TGI (SK-MEL-5 melanoma): > 100 µM
TGI (EKVX NSCLC): > 100 µM
TGI (HOP-92 NSCLC): > 100 µM
TGI (SF-268 CNS): > 100 µM
TGI (DU-145 prostate): > 100 µM
TGI (LOX IMVI melanoma): > 100 µM
TGI (MDA-MB-231 breast): > 100 µM
TGI (SK-MEL-28 melanoma): > 100 µM

CCN(CC)C(=S)SNc1ccc(S(N)(=O)=O)cc1
TGI (SN12C renal): > 100 µM
TGI (BT-549 breast): > 100 µM
TGI (HCT-116 colon): > 100 µM
TGI (M14 melanoma): > 67.7 µM
TGI (UACC-62 melanoma): > 100 µM
TGI (SK-MEL-5 melanoma): > 100 µM
TGI (EKVX NSCLC): > 100 µM
TGI (HOP-92 NSCLC): > 100 µM
TGI (SF-268 CNS): > 100 µM
TGI (DU-145 prostate): > 100 µM
TGI (LOX IMVI melanoma): > 100 µM
TGI (MDA-MB-231 breast): > 100 µM
TGI (SK-MEL-28 melanoma): > 100 µM

CC1=[N+]([O-])C(C)(C)N(N=O)C1(C)C
TGI (SN12C renal): > 10 µM
TGI (BT-549 breast): > 10 µM
TGI (HCT-116 colon): > 10 µM
TGI (M14 melanoma): > 10 µM
TGI (EKVX NSCLC): > 10 µM
TGI (HOP-92 NSCLC): > 10 µM
TGI (SF-268 CNS): > 10 µM
TGI (DU-145 prostate): > 10 µM
TGI (MDA-MB-231 breast): > 10 µM

COc1ccc2c(c1)CCN=C2Cc1ccccc1CCCl
TGI (SN12C renal): 72.5 µM
TGI (BT-549 breast): > 100 µM
TGI (HCT-116 colon): > 100 µM
TGI (M14 melanoma): 46.1 µM
TGI (UACC-62 melanoma): 52.7 µM
TGI (SK-MEL-5 melanoma): 36.6 µM
TGI (EKVX NSCLC): > 100 µM
TGI (HOP-92 NSCLC): > 100 µM
TGI (SF-268 CNS): > 100 µM
TGI (DU-145 prostate): > 100 µM
TGI (MDA-MB-231 breast): 44.1 µM
TGI (SK-MEL-28 melanoma): > 100 µM

CC1(C)O[C@H]([C@H](O)c2nnc3ccc(Cl)nn23)[C@@H]([C@H]2COC(C)(C)O2)O1
TGI (SN12C renal): > 100 µM
TGI (BT-549 breast): > 100 µM
TGI (HCT-116 colon): > 100 µM
TGI (M14 melanoma): > 100 µM
TGI (UACC-62 melanoma): > 100 µM
TGI (SK-MEL-5 melanoma): > 100 µM
TGI (EKVX NSCLC): > 100 µM
TGI (SF-268 CNS): > 100 µM
TGI (DU-145 prostate): > 100 µM
TGI (LOX IMVI melanoma): > 100 µM
TGI (MDA-MB-231 breast): > 100 µM
TGI (SK-MEL-28 melanoma): > 100 µM

O=C(Nc1ccc(Cl)cc1)NS(=O)(=O)c1coc2ccccc2c1=O
TGI (SN12C renal): > 10 µM
TGI (BT-549 breast): > 10 µM
TGI (HCT-116 colon): > 10 µM
TGI (M14 melanoma): > 10 µM
TGI (UACC-62 melanoma): > 10 µM
TGI (SK-MEL-5 melanoma): > 10 µM
TGI (EKVX NSCLC): > 10 µM
TGI (HOP-92 NSCLC): > 10 µM
TGI (SF-268 CNS): > 10 µM
TGI (DU-145 prostate): > 10 µM
TGI (LOX IMVI melanoma): > 10 µM
TGI (MDA-MB-231 breast): > 10 µM
TGI (SK-MEL-28 melanoma): > 10 µM
